From US20220145303A1, “FRAGILE X MENTAL RETARDATION PROTEIN INTERFERING OLIGONUCLEOTIDES AND METHODS OF USING SAME” (Nogra Pharma Limited, priority 2019, published 2022)

Assays:
FMRP [1] = experiment: FMRP knockdown: Western blot of FMRP after transfection with FMRP antisense or sense oligonucleotide; format: cell-based, human; conditions: 48 hours, AS 0.5-100 nM, S 100 nM
Procedure: Total proteins were extracted from mouse colonic tissues, and lysed on ice in buffer containing 10 mM HEPES [pH 7.9], 10 mM KCl, 0.1 mM EthyleneDiamineTetraacetic Acid (EDTA), 0.2 mM Ethylene Glycol-bis (β-aminoethyl ether)-N,N,N′,N′-Tetraacetic Acid (EGTA) and 0.5% Nonidet P40 supplemented with 1 mM dithiothreitol (DTT), […], […], 1 mM phenylmethylsulfonyl fluoride (PMSF), 1 mM Na3VO4, and 1 mM NaF. Lysates were clarified by centrifugation and separated on sodium dodecyl sulphate (SDS)-polyacrylamide gel electrophoresis. Blots were incubated with antibodies against: FMRP (Cell Signaling, Danvers, Mass.), followed by a secondary antibody conjugated to horseradish peroxidase (Dako, Milan, Italy). After analysis, each blot was stripped and incubated with a mouse-anti-human monoclonal β-actin antibody (Sigma-Aldrich) to ascertain equivalent loading of the lanes.
Human CRC cell lines, DLD-1 and HCT-116, were obtained from the American Type Culture Collection (ATCC, Manassas, Va.) and cultured in RPMI 1640 (DLD-1) and McCoy's 5A (HCT-116) medium, respectively. All media were supplemented with 10% fetal bovine serum, 1% penicillin/streptomycin (both from Lonza, Verviers, Belgium). The normal human colon epithelial cell line (HCEC-1ct) was obtained from EVERCYTE GmbH (Vienna, Austria) and cultured in ColoUp® medium (EVERCYTE GmbH). Cells were maintained in a 37° C., 5% CO2, fully humidified incubator. Cell line lysates were prepared and analyzed by SDS-polyacrylamide gel electrophoresis/immunoblot using methods as previously described in Example 2. For immunofluorescent staining, cell lines were fixed with 3.7% formaldehyde for 10 minutes at 4° C., permeabilized with 0.1% Triton for 10 minutes at room temperature and blocked (1% bovine serum albumin, Tween 0.1%, glycine 2%) for 1 hour at room temperature. Fixed and blocked cells were incubated with anti-FMRP monoclonal antibody (1:500, Cell Signaling, Danvers, Mass.) overnight at 4° C. After washing with PBS, secondary antibody goat anti-rabbit Alexa 488 (1:2000, A11008; Invitrogen) was applied for 1 hour at room temperature. Slides were washed with PBS, mounted using Prolong Gold® anti-fade reagent with 4′,6-diamidino-2-phenylindole (P36931; Invitrogen) and analyzed by a Leica DMI4000 B microscope with Leica application suite software (V4.6.2).
Phosphorothioate single-stranded antisense oligonucleotides complementary to human FMRP [5′-[…]-3′ (SEQ ID NO: 6)] and single-stranded sense oligonucleotides [5′-[…]-3′ (SEQ ID NO: 15)] were synthesized. CRC cell lines and HCEC-1ct cells were transfected with either FMRP antisense (AS)(final concentration 0.5-100 nM) or FMRP sense oligonucleotide (S) (final concentration100 nM) for 24 and 48 hours, using Opti-MEM medium and lipofectamine 3000 reagent (Thermo Fisher Scientific, Waltham, Mass., USA) according to the manufacturer's instructions.

CREB = experiment: Western blot of CREB after CREB antisense transfection; format: cell-based; conditions: human CRC cell lines, 200 nM, 24 or 48 hours, vs untreated or sense control, FIGS. 7D, 7E
Procedure: (§1) To asses if CREB regulates FMRP expression, CRC cell lines were transfected with either CREB antisense (ASc) (5′-[…]-3′) (SEQ ID NO: 16) or CREB sense (Ss) (5′-[…]-3′)(SEQ ID NO: 17)(final concentration 200 nM) for 24 or 48 hours. mRNA and total protein lysates were prepared and analyzed by RT-PCR and Western blot, respectively, as previously described in Examples 1 to 3.

FMRP [2] = experiment: Western blot of FMRP after CREB antisense transfection; format: cell-based; conditions: human CRC cell lines, CREB antisense 200 nM, 24 or 48 hours, FIGS. 7D, 7F
Procedure: as §1

CRC cells = experiment: Antisense-induced cell death after pan-caspase inhibitor pre-treatment (PI/AnnV flow cytometry); format: cell-based, human; conditions: Q-VD-OPh 1 μM pre-treatment, FIG. 4C
Procedure: (§2) Immunotools, Friesoythe, Germany) according to the manufacturer's instructions, and incubated with […] of propidium iodide (PI) for 30 min at 4° C. Cells were also transfected with either FMRP sense oligonucleotide or FMRP AS oligonucleotide (final concentration 100 nM) for 36 hours and analyzed for activated caspase 3 and caspase 8. […] Additionally, 36 hours (FIGS. 4F and 4G) or 48 hours post-transfection (FIGS. 4D and 4E), cells were pulsed with […] bromodeoxyuridine for 60 minutes, fixed in 70% cold ethanol, and stored at −20° C. for at least 3 hours. […] Fluorescence was measured using Gallios Flow Cytometer (Beckman Coulter, Life Sciences, Pasadena, Calif., USA) and analyzed using Kaluza software (Beckman Coulter). Viable cells were considered as AV^−/PI^− cells.

human CRC cell lines = experiment: Antisense-induced cell death with RIPK1 or MLKL inhibitor (PI/AnnV flow cytometry); format: cell-based; conditions: NEC1 10 μM, NSA 1 μM, 24 hours, FIGS. 6E, 6F
Procedure: To confirm the association of FMRP with components of the necroptosis pathway, cells were left untreated or transfected with either FMRP antisense oligonucleotide (final concentration 0.5 nM and 100 nM) or FMRP sense oligonucleotide (final concentration 100 nM); incubated with a pMLKL inhibitor (necrosulfonamide, NSA; final concentration 1 μM)(Calbiochem); or a pRIPK1 inhibitor (necrostatinl, NEC1; final concentration 10 μM)(Cayman Chemical, Ann Arbor, Mich. USA). After 24 hours cells were collected and analyzed by Western blot, or stained with FITC-Annexin V and PI for flow cytometry analysis, as previously described in Examples 1-3.

caspase 3 = experiment: Activated caspase 3 by flow cytometry in CRC cells; format: cell-based, human; conditions: oligonucleotide 100 nM 36 hours, staurosporin 1 μM, FIGS. 4A, 4B
Procedure: as §2

For “5′-ATGGAGGAGCTGGTGGTGGA-3′ (DNA, backbone and methylation of C not given here; further chemistry not fully specified) [sense oligonucleotide, single-stranded sense oligonucleotides, control, reference compound]”, the FMRP expression (FMRP [1]; DLD-1 cells, FIG. 3D) was “no significant inhibition”, the FMRP expression (FMRP [1]; HCEC-1ct cells, FIG. 3I) was “no significant inhibition” and the FMRP expression (FMRP [1]; HCT-116 cells, FIG. 3G) was “no significant inhibition”.
With “5′-GCATCTCCACTCTGCTGGTT-3′ (listed as DNA, chemistry not given here) [CREB antisense oligonucleotide, CREB antisense (ASc)]” the CREB protein expression (CREB) was “reduced expression of CREB protein” and the FMRP protein expression (FMRP [2]) was “concomitant reduction in FMRP protein expression”.
In the case of `CC(C)[C@H](NC(=O)c1ccc2ccccc2n1)C(=O)N[C@@H](CC(=O)O)C(=O)COc1c(F)cccc1F` [Q-VD-OPh], the “effect of pre-treatment on FMRP antisense oligonucleotide-induced cell death” value (CRC cells) is reported as “did not alter FMRP antisense oligonucleotide-induced cell death”.
In the case of `CN1C(=O)C(Cc2c[nH]c3ccccc23)NC1=S` (stereo not drawn) [necrostatin 1], the “effect on FMRP antisense oligonucleotide-induced cell death” value (human CRC cell lines) is reported as “protected from FMRP antisense oligonucleotide-induced cell death”.
`COc1nccnc1NS(=O)(=O)c1ccc(NC(=O)/C=C/c2ccc([N+](=O)[O-])s2)cc1` [necrosulfonamide] was tested, and the “effect on FMRP antisense oligonucleotide-induced cell death” value (human CRC cell lines) was “protected from FMRP antisense oligonucleotide-induced cell death”.
`CN[C@@H]1C[C@H]2O[C@@](C)([C@@H]1OC)n1c3ccccc3c3c4c(c5c6ccccc6n2c5c31)C(=O)NC4` [staurosporin, reference compound] was tested, and the “percentage of activated caspase 3-positive cells” value (caspase 3) was “significantly increased”.
